Data as given in patent publication US20130029981A1, “COMPOUNDS, COMPOSITIONS, AND METHODS FOR CONTROLLING BIOFILMS” (Katholieke Universiteit Leuven, priority 2009, published 2013).

How the values were obtained:
S. Typhimurium ATCC14028 [1] = assay: Static peg assay for prevention of biofilm formation (Calgary device, crystal violet); format: cell-based, Salmonella Typhimurium
Outline: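 Calgary 96-peg device, ca. 10^6 cells of ATCC14028 per well in TSB 1/20 for 24 h at 25° C (or 48 h at 16° C, medium and compound renewed at 24 h), or in CFA broth for 24 h at 37° C, static, with two-fold compound dilutions. Crystal violet stain, acetic acid extraction, OD570. IC50 from 2–3 independent experiments.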

S. Typhimurium ATCC14028 [2] = assay: Bioscreen assay: influence on planktonic growth curve; format: cell-based, Salmonella Typhimurium; parameters: key: x: no influence on planktonic growth at the IC50 for biofilm inhibition; planktonic growth is retarded at the IC50 for biofilm inhibition; conditions: planktonic growth at the IC50 for biofilm inhibition, 25° C.
Text: Some of the tested compounds show a concentration range in which biofilm formation is inhibited but no effect on planktonic growth is observed. These compounds are particularly interesting for prevention of biofilm formation since the development of resistance against these compounds is less likely. Table 8 indicates whether the different compounds have an effect on the planktonic growth of the bacteria at the IC50 for biofilm inhibition. To construct Table 8, the effect of the tested compounds on the growth curve of the bacteria was determined at a concentration equal to the IC50 for biofilm inhibition, by using the Bioscreen system available from Oy Growth Curves Ab Ltd). The Bioscreen device from Oy Growth Curves Ab Ltd was used for measuring the influence of the chemical compounds on the planktonic growth of Salmonella Typhimurium and Pseudomonas aeruginosa. The Bioscreen is a computer controlled incubator/reader/shaker that uses 10×10 well microtiter plates and measures light absorbance of each well at a specified wave length in function of time. An overnight culture of S. […] The broth used was TSB 1/20 for the experiments at 16° C. and 25° C. For experiments at 37° C. CFA medium was used for S. […] As a control 3 μl of the appropriate solvent (DMSO or EtOH) was also added to the plate in 3- or 4-fold. The microtiter plate was incubated in the Bioscreen device at 16° C., 25° C. or 37° C. for at least 36 hours, with continious medium shaking. The absorbance of each well was measured at 600 nm each 15 minutes. Excel was used to generate the growth curves for treated the treated wells and the untreated control wells. Some of the compounds show a concentration range in which biofilm formation is inhibited but no effect on the planktonic growth is observed. […] To construct this table the effect of the compounds on the growth curve of the bacteria was determined at a concentration equal to the IC50 for biofilm inhibtion, by using the Bioscreen system from Oy Growth Curves Ab Ltd.

[3] = system: Salmonella Typhimurium ATCC 14028; assay: Antibacterial activity: growth inhibition, OD600 after 24 h (GIC50); format: cell-based; conditions: 25° C.
Description: Evaluation of antibacterial-inhibitory activity of some substituted 2-amino-1H-imidazoles of the invention was carried out by diluting an overnight culture of Salmonella Typhimurium ATCC 14028 into a liquid medium. 200 μl of the diluted overnight culture was added to each well of a microtiter plate together with different concentrations of the test compound (1/2 dilution series of the compound). After an incubation of 24 hours the optical density at 600 nm of each well was determined with a microtiter plate reader.
Starting from a 40 mM stock solution of each compound in DMSO, two-fold serial dilutions in 100 μl liquid broth per well were prepared in dublicate in sterile transparant microtiter plates. The broth used was TSB 1/20 for measurements at 25° C. and CFA (in case of Salmonella Typhimurium) and LBNS (in case of Pseudomonas aeruginosa) for measurements at 37° C. Subsequently an overnight culture of the bacteria (S. Typhimurium ATCC14028 or P. aeruginosa PA14) was diluted 1/200 into the corresponding liquid broth and 100 μl was added to each well of the microtiterplate resulting in a total amout of 200 μl medium per well. After an incubation of 24 hours the optical density at 600 nm of each well was determined with a microtiter plate reader (VERSAmax, Molecular Devices).
Evaluation of antibacterial-inhibitory activity of some substituted imidazo[1,2-a]pyrimidinium bromide salts of the invention was carried out by diluting an overnight culture of Salmonella Typhimurium ATCC14028 or Pseudomonas aeruginosa PA141/200 into liquid medium. 200 μl of the diluted overnight culture was added to each well of a microtiterplate together with different concentrations of the test compound (1/2 dilution series of the compound). After an incubation of 24 hours the optical density at 600 nm of each well was determined with a microtiter plate reader.

S. Typhimurium ATCC14028 [4] = assay: Bioscreen assay: influence on planktonic growth curve; format: cell-based, Salmonella Typhimurium; conditions: 400 μM
Text: Some of the tested compounds show a concentration range in which biofilm formation is inhibited but no effect on planktonic growth is observed. These compounds are particularly interesting for prevention of biofilm formation since the development of resistance against these compounds is less likely. Table 8 indicates whether the different compounds have an effect on the planktonic growth of the bacteria at the IC50 for biofilm inhibition. To construct Table 8, the effect of the tested compounds on the growth curve of the bacteria was determined at a concentration equal to the IC50 for biofilm inhibition, by using the Bioscreen system available from Oy Growth Curves Ab Ltd). The Bioscreen device from Oy Growth Curves Ab Ltd was used for measuring the influence of the chemical compounds on the planktonic growth of Salmonella Typhimurium and Pseudomonas aeruginosa. The Bioscreen is a computer controlled incubator/reader/shaker that uses 10×10 well microtiter plates and measures light absorbance of each well at a specified wave length in function of time. An overnight culture of S. […] The broth used was TSB 1/20 for the experiments at 16° C. and 25° C. For experiments at 37° C. CFA medium was used for S. […] As a control 3 μl of the appropriate solvent (DMSO or EtOH) was also added to the plate in 3- or 4-fold. The microtiter plate was incubated in the Bioscreen device at 16° C., 25° C. or 37° C. for at least 36 hours, with continious medium shaking. The absorbance of each well was measured at 600 nm each 15 minutes. Excel was used to generate the growth curves for treated the treated wells and the untreated control wells. Some of the compounds show a concentration range in which biofilm formation is inhibited but no effect on the planktonic growth is observed. Table 14 indicates if the different compounds have an effect on the planktonic growth of the bacteria at the IC50 for biofilm inhibition. To construct this table the effect of the compounds on the growth curve of the bacteria was determined at a concentration equal to the IC50 for biofilm inhibtion, by using the Bioscreen system from Oy Growth Curves Ab Ltd.

S. Typhimurium SL1344 [5] = assay: Growth inhibition of planktonic cells in the peg assay plate (OD600); format: cell-based; conditions: Salmonella enterica, SL1344, 16° C.
S. Typhimurium ATCC14028 [6] = assay: as above; format: cell-based, Salmonella Typhimurium; conditions: Salmonella enterica, ATCC14028, 16° C.
S. Typhimurium SL1344 [7] = assay: Static peg assay for prevention of biofilm formation (Calgary device, crystal violet); format: cell-based; conditions: Salmonella enterica, SL1344, 16° C., read-out: IC50 biofilm inhibition
Description: After an incubation period of 24 hours at 25° C. or 37° C. or 48 hours at 16° C. the biofilms were visualized by crystal violet staining. […] Biofilm formation assays were carried out at 16° C., 25° C. and 37° C. […] Subsequently, an overnight culture of S. […] The pegged lid was placed on the microtiter plate and the plate was incubated for 48 hours at 16° C. or for 24 hours at 25° C. without shaking. During this incubation period biofilms were formed on the surface of the pegs. In case of the assay at 16° C., after 24 hours the lid was transferred into a new plate with medium and the specific molecules used for testing. […] The remaining attached bacteria were stained for 30 minutes with 200 μl 0.1% (w/v) crystal violet in an isopropanol/methanol/PBS solution (v/v 1:1:18). Excess stain was rinsed off by placing the pegs in a 96-well plate filled with 200 μl distilled water per well. After the pegs were air dried (30 min), the dye bound to the adherent cells was extracted with 30% glacial acetic acid (200 μl). The OD570 of each well was measured using the VERSAmax microtiter plate reader.

[8] = system: Pseudomonas aeruginosa PA14; assay: as above; format: cell-based; conditions: 25° C., Table 18; read-out: P. aeruginosa IC50 (biofilm formation)
Outline: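 P. aeruginosa PA14 overnight TSB culture diluted 1:100 into broth with two-fold compound dilutions, biofilms grown 24 h static on polystyrene pegs of a Calgary device at 25 °C (TSB 1/20), 30 °C or 37 °C (CFA and/or LBNS). Biofilm quantified by crystal violet, extracted with 30% acetic acid, A570.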

[9] = Salmonella enterica, 25° C., Table 11, read-out: IC50 (biofilm formation)
[10] = Salmonella enterica, 25° C., Table 14, read-out: IC50 biofilm inhibition
[11] = 25° C., Table 11, read-out: IC50 (biofilm formation)
[12] = 25° C., Table 14, read-out: IC50 biofilm inhibition
[13] = Salmonella enterica, ATCC14028, 16° C., read-out: IC50 biofilm inhibition

O=[N+]([O-])c1cccc(C2(O)C[n+]3cccnc3N2C2CCCCCCCCCCC2)c1.[Br-] (stereo not shown) [R1=Cyclododecyl, R3=3-NO2Ph, R4=H, 1-cyclododecyl-2-hydroxy-2-(3-nitrophenyl)-2,3-dihydro-1H-imidazo[1,2-a]pyrimidin-4-ium bromide]
IC50 (S. Typhimurium ATCC14028 [1]; [9]): < 6.25 µM
IC50 (S. Typhimurium ATCC14028 [1]; [10]): < 6.25 µM
Influence on growth (S. Typhimurium ATCC14028 [2]): ∘
IC50 ([3]; Salmonella enterica): 6 to 12 µM

OC1(c2ccc(F)cc2)C[n+]2cccnc2N1Cc1ccc2c(c1)OCO2.[Br-] (stereo not shown) [Compound 79]
IC50 (S. Typhimurium ATCC14028 [1]; [11]): 29.4 µM
IC50 (S. Typhimurium ATCC14028 [1]; [12]): 29.4 µM
IC50 (S. Typhimurium ATCC14028 [1]; 25° C., Table 19, read-out: IC50 (biofilm formation)): 17.2 µM
Effect on growth at 400 μM (S. Typhimurium ATCC14028 [4]): ∘
Influence on growth (S. Typhimurium ATCC14028 [2]): ∘
IC50 [3]: 200 µM

c1ccc(Sc2ccc3c(c2)OCO3)c(CNC2=NCCN2)c1 [Specs3-1]
IC50 (S. Typhimurium SL1344 [5]): 417 µM
IC50 (S. Typhimurium ATCC14028 [6]): 417 µM
IC50 (S. Typhimurium ATCC14028 [1]; [13]): 42 µM
IC50 (S. Typhimurium SL1344 [7]): ~65.9 µM

Fc1ccc(Sc2ccccc2CNC2=NCCN2)cc1 [Specs3]
IC50 (S. Typhimurium SL1344 [5]): 283 µM
IC50 (S. Typhimurium ATCC14028 [6]): 283 µM
IC50 (S. Typhimurium ATCC14028 [1]; [13]): 21.9 µM
IC50 (S. Typhimurium SL1344 [7]): ~31.8 µM

CC1[n+]2cccnc2N(c2ccccc2)C1(O)c1ccc(Br)cc1 (stereo not shown) [R1=Ph, R3=4-Br—Ph, R4=Me, 1-phenyl-2-hydroxy-2-(4-bromophenyl)-3-methyl-2,3-dihydro-1H-imidazo[1,2-a]pyrimidin-4-ium bromide]
IC50 (S. Typhimurium ATCC14028 [1]; [9]): 57.5 µM
IC50 (S. Typhimurium ATCC14028 [1]; [10]): 57.5 µM
IC50 ([3]; Salmonella enterica): 50 to 100 µM

COc1ccc(CCN2c3nccc[n+]3CC2(O)c2ccc([N+](=O)[O-])cc2)cc1OC (stereo not shown) [R1=2-(3,4-diMeO—Ph)Et, R3=4-NO2-Ph, R4=H, 1-(2-(3,4-dimethoxyphenyl)ethyl)-2-hydroxy-2-(4-nitrophenyl)-2,3-dihydro-1H-imidazo-[1,2-a]pyrimidin-4-ium bromide]
IC50 (S. Typhimurium ATCC14028 [1]; [9]): 127 µM
IC50 (S. Typhimurium ATCC14028 [1]; [10]): 127 µM
IC50 ([3]; Salmonella enterica): 100 to 200 µM

CSc1ccc(C2(O)C[n+]3cccnc3N2C2CCCCC2)cc1 (stereo not shown) [R1=Cyclohexyl, R3=4-MeS—Ph, R4=H, 1-cyclohexyl-2-hydroxy-2-(4-methylthiophenyl)-2,3-dihydro-1H-imidazo[1,2-a]pyrimidin-4-ium bromide]
IC50 (S. Typhimurium ATCC14028 [1]; [9]): 118 µM
IC50 (S. Typhimurium ATCC14028 [1]; [10]): 118 µM
IC50 ([3]; Salmonella enterica): 100 to 200 µM

CCCCN1c2nccc[n+]2CC1(O)C(c1ccccc1)c1ccccc1 (stereo not shown) [R1=n-butyl, R3=dimethylphenyl, R4=H, 1-butyl-2-hydroxy-2-(diphenyl-methyl)-2,3-dihydro-1H-imidazo[1,2-a]pyrimidin-4-ium bromide]
IC50 (S. Typhimurium ATCC14028 [1]; [10]): 72.1 µM
IC50 ([3]; Salmonella enterica): 50 to 100 µM

OC1(c2ccc(Cl)cc2)C[n+]2cccnc2N1C1CC1 (stereo not shown) [Compound 61]
IC50 (S. Typhimurium ATCC14028 [1]; [11]): 120 µM
IC50 (S. Typhimurium ATCC14028 [1]; [12]): 120 µM
IC50 (S. Typhimurium ATCC14028 [1]; 25° C., Table 18, read-out: S. Typhimurium IC50 (biofilm formation)): 82.7 µM
IC50 [8]: 179 µM
IC50 [3]: 100 to 200 µM
